Molecules are shown by their SMILES. Values joined by “and” are separate entries in the source; they are usually repeats but may differ in a detail not shown here. Identical values can stand only once. Toxic doses and inconclusive results are not listed.

The subject of this assay is P388 leukemia ip, CD2F1 mice, survival T/C. Kind of assay: NCI In Vivo Anticancer Drug Screen. Data for tumor model P388 Leukemia (intraperitoneal) in CD2F1 (CDF1) mice. The conditions noted are these: endpoint: median survival time, higher = longer survival. In short, it runs like this:
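Mice carrying the transplanted tumor received test compound or vehicle. Survival was recorded in each group, and the value is the treated-group measurement divided by that of the vehicle-treated control group.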

[1] abbreviates: dose: 60.0 mg/kg/injection, schedule: Q01DX005 (ip), vehicle: saline with Tween-80.
[2] abbreviates: dose: 120.0 mg/kg/injection, schedule: Q01DX005 (ip), vehicle: saline with Tween-80.
[3] abbreviates: dose: 240.0 mg/kg/injection, schedule: Q01DX005 (ip), vehicle: saline with Tween-80.
Where [4] appears, read: dose: 50.0 mg/kg/injection, schedule: Q01DX009 (ip), vehicle: saline.
Where [5] appears, read: dose: 100.0 mg/kg/injection, schedule: Q01DX009 (ip), vehicle: saline.
The mark [6] stands for this setting: dose: 50.0 mg/kg/injection, schedule: Q01DX009 (ip), vehicle: Klucel (hydroxypropylcellulose) (HPC).
Setting [7] is: dose: 100.0 mg/kg/injection, schedule: Q01DX009 (ip), vehicle: Klucel (hydroxypropylcellulose) (HPC).
Setting [8] is: dose: 200.0 mg/kg/injection, schedule: Q01DX009 (ip), vehicle: Klucel (hydroxypropylcellulose) (HPC).

On to `O=C1CCC(C(=O)N2CCCC2)N1` (centres undefined), for which the T/C is, setting by setting: (dose: 50.0 mg/kg/injection, schedule: Q01DX005 (ip), vehicle: saline) 96 % of control and 100 % of control; (dose: 100.0 mg/kg/injection, schedule: Q01DX005 (ip), vehicle: saline) 104 % of control and 98 % of control; (dose: 200.0 mg/kg/injection, schedule: Q01DX005 (ip), vehicle: saline) 104 % of control and 97 % of control.
`COC(=O)C1=CN2CCc3c([nH]c4ccccc34)C2(C)C2CN3CCc4c([nH]c5ccccc45)C3CC12` (centres undefined): the T/C (dose: 2.25 mg/kg/injection, schedule: Q01DX009 (ip), vehicle: Klucel (hydroxypropylcellulose) (HPC)) was 98 % of control; the T/C (dose: 4.5 mg/kg/injection, schedule: Q01DX009 (ip), vehicle: Klucel (hydroxypropylcellulose) (HPC)) was 106 % of control; the T/C (dose: 9.0 mg/kg/injection, schedule: Q01DX009 (ip), vehicle: Klucel (hydroxypropylcellulose) (HPC)) is 113 % of control; the T/C (dose: 18.0 mg/kg/injection, schedule: Q01DX009 (ip), vehicle: Klucel (hydroxypropylcellulose) (HPC)) was 92 % of control; the T/C (dose: 36.0 mg/kg/injection, schedule: Q01DX009 (ip), vehicle: Klucel (hydroxypropylcellulose) (HPC)) is 98 % of control.
Turning to `COC(=O)C(=O)c1c(-c2ccc(Cl)c(Cl)c2)[nH]c2[nH]n(-c3ccccc3)c(=O)c2c1=O`, the T/C under setting [1] was 94 % of control, the T/C under setting [2] was 88 % of control and the T/C under setting [3] was 88 % of control.
As for `CN1CCN(C(=O)CCSc2nc(-c3ccccc3)c(-c3ccccc3)o2)CC1`, the T/C by setting is: under setting [4], 110 % of control; under setting [5], 110 % of control.
As for `COc1cc2c(cc1OC)C1CC(=O)C(CCCCCCC3CN4CCc5cc(OC)c(OC)cc5C4CC3=O)CN1CC2` (centres undefined), the T/C was 91 % of control under setting [6], 92 % of control under setting [7] and 99 % of control under setting [8].
With `Clc1ccc(-c2csc(NCC3CCCO3)n2)cc1` (centres undefined), the T/C by setting is: under setting [6], 100 % of control; under setting [7], 108 % of control; under setting [8], 100 % of control.
For `COC1N(Cc2ccccc2)C=C2C(=O)NC(=O)C3NC(c4ccccc4)C1(C)C23C` (centres undefined), the T/C is 90 % of control (dose: 50.0 mg/kg/injection, schedule: Q01DX005 (ip), vehicle: Klucel (hydroxypropylcellulose) (HPC)); 91 % of control (dose: 100.0 mg/kg/injection, schedule: Q01DX005 (ip), vehicle: Klucel (hydroxypropylcellulose) (HPC)); 88 % of control and 92 % of control (dose: 200.0 mg/kg/injection, schedule: Q01DX005 (ip), vehicle: Klucel (hydroxypropylcellulose) (HPC)).
As to `CN1C(=O)Cn2c(nn(Cc3ccccc3)c(=O)c2=O)-c2cc(Cl)ccc21`, the T/C is, setting by setting: (dose: 100.0 mg/kg/injection, schedule: Q01DX001 (ip), vehicle: Klucel (hydroxypropylcellulose) (HPC)) 96 % of control; (dose: 200.0 mg/kg/injection, schedule: Q01DX001 (ip), vehicle: Klucel (hydroxypropylcellulose) (HPC)) 101 % of control; (dose: 400.0 mg/kg/injection, schedule: Q01DX001 (ip), vehicle: Klucel (hydroxypropylcellulose) (HPC)) 99 % of control.
Take `CN(C)Cc1cn(C[Si](C)(C)C)c2ccccc12`: under setting [1], the T/C was 112 % of control.
As for `COC(=O)c1cc(NC(=O)O/N=C/c2cccnc2)cc(C(=O)OC)c1`, the T/C runs as follows: under setting [4], 103 % of control; under setting [5], 91 % of control.
For `O=C(CS(=O)(=O)c1ccccc1)CS(=O)(=O)c1ccccc1`, the T/C reads like this: under setting [6], 96 % of control; under setting [7], 98 % of control; under setting [8], 99 % of control.
For `CCC1C(OC)=CC2(CC)CC1(OC)OC2=O` (centres undefined), the T/C runs as follows: under setting [1], 97 % of control; under setting [2], 98 % of control; under setting [3], 102 % of control.
Turning to `Nc1ccc(S(=O)O)cc1`, the T/C (dose: 100.0 mg/kg/injection, schedule: Q04DX003 (ip), vehicle: saline with Tween-80) is 100 % of control; the T/C (dose: 200.0 mg/kg/injection, schedule: Q04DX003 (ip), vehicle: saline with Tween-80) was 100 % of control; the T/C (dose: 400.0 mg/kg/injection, schedule: Q04DX003 (ip), vehicle: saline with Tween-80) was 100 % of control.
With `CC1([N+](=O)[O-])C(=O)C2(N3CCOCC3)CCCC2C1c1ccccc1` (centres undefined), the T/C is, setting by setting: (dose: 60.0 mg/kg/injection, schedule: Q01DX005 (ip), vehicle: Klucel (hydroxypropylcellulose) (HPC)) 99 % of control; (dose: 120.0 mg/kg/injection, schedule: Q01DX005 (ip), vehicle: Klucel (hydroxypropylcellulose) (HPC)) 96 % of control; (dose: 240.0 mg/kg/injection, schedule: Q01DX005 (ip), vehicle: Klucel (hydroxypropylcellulose) (HPC)) 90 % of control.
With `CN=C(N)NN=C(c1ccc(C)cc1)c1ccc(C)cc1`, the T/C is, setting by setting: (dose: 12.5 mg/kg/injection, schedule: Q04DX002 (ip), vehicle: saline with Tween-80) 91 % of control; (dose: 25.0 mg/kg/injection, schedule: Q04DX002 (ip), vehicle: saline with Tween-80) 104 % of control; (dose: 100.0 mg/kg/injection, schedule: Q04DX002 (ip), vehicle: saline with Tween-80) 96 % of control; (dose: 200.0 mg/kg/injection, schedule: Q04DX002 (ip), vehicle: saline with Tween-80) 100 % of control.
On to `COc1ccccc1NC(=O)N(CCCl)N=O`, for which the T/C was 154 % of control (dose: 3.0 mg/kg/injection, schedule: Q04DX003 (ip), vehicle: saline with Tween-80); 168 % of control (dose: 6.0 mg/kg/injection, schedule: Q04DX003 (ip), vehicle: saline with Tween-80); 163 % of control (dose: 6.25 mg/kg/injection, schedule: Q01DX009 (ip), vehicle: saline with Tween-80); 168 % of control (dose: 6.25 mg/kg/injection, schedule: Q04DX003 (ip), vehicle: saline with Tween-80); 200 % of control (dose: 12.5 mg/kg/injection, schedule: Q01DX009 (ip), vehicle: saline with Tween-80); 190 % of control (dose: 12.5 mg/kg/injection, schedule: Q04DX003 (ip), vehicle: saline with Tween-80). The T/C was 152 % of control (dose: 16.5 mg/kg/injection, schedule: Q04DX003 (ip), vehicle: saline with Tween-80); 95 % of control (dose: 25.0 mg/kg/injection, schedule: Q01DX009 (ip), vehicle: saline with Tween-80); 272 % of control (dose: 25.0 mg/kg/injection, schedule: Q04DX003 (ip), vehicle: saline with Tween-80); 123 % of control (dose: 37.5 mg/kg/injection, schedule: Q04DX003 (ip), vehicle: saline with Tween-80).
For `CCc1nc(N)nc(N)c1-c1ccc(N2CCCCC2)c([N+](=O)[O-])c1`, the T/C reads like this: (dose: 3.13 mg/kg/injection, schedule: Q01DX009 (ip), vehicle: distilled water + Tween-80) 104 % of control; (dose: 6.25 mg/kg/injection, schedule: Q01DX009 (ip), vehicle: distilled water + Tween-80) 99 % of control; (dose: 12.5 mg/kg/injection, schedule: Q01DX009 (ip), vehicle: distilled water + Tween-80) 95 % of control; (dose: 25.0 mg/kg/injection, schedule: Q01DX009 (ip), vehicle: distilled water + Tween-80) 95 % of control; (dose: 50.0 mg/kg/injection, schedule: Q01DX009 (ip), vehicle: distilled water + Tween-80) 99 % of control and 90 % of control and 92 % of control; (dose: 100.0 mg/kg/injection, schedule: Q01DX009 (ip), vehicle: distilled water + Tween-80) 107 % of control and 86 % of control. The T/C (dose: 200.0 mg/kg/injection, schedule: Q01DX009 (ip), vehicle: distilled water + Tween-80) is 90 % of control.
For `CCCCCCN(CCCCCC)c1nsc(Cl)n1`, the T/C reads like this: (dose: 40.0 mg/kg/injection, schedule: Q01DX009 (ip), vehicle: saline with Tween-80) 105 % of control; (dose: 80.0 mg/kg/injection, schedule: Q01DX009 (ip), vehicle: saline with Tween-80) 108 % of control; (dose: 160.0 mg/kg/injection, schedule: Q01DX009 (ip), vehicle: saline with Tween-80) 111 % of control.
For the compound `COc1cc(C/C=C/c2ccccc2)c(OC)cc1O`, the T/C is 91 % of control (dose: 2.5 mg/kg/injection, schedule: Q01DX009 (ip), vehicle: saline with Tween-80); 102 % of control (dose: 5.0 mg/kg/injection, schedule: Q01DX009 (ip), vehicle: saline with Tween-80); 101 % of control (dose: 10.0 mg/kg/injection, schedule: Q01DX009 (ip), vehicle: saline with Tween-80).
Regarding `CC1=Nc2ccccc2NC(=O)C1`, the T/C runs as follows: (dose: 12.5 mg/kg/injection, schedule: Q01DX009 (ip), vehicle: Klucel (hydroxypropylcellulose) (HPC)) 99 % of control; (dose: 25.0 mg/kg/injection, schedule: Q01DX009 (ip), vehicle: Klucel (hydroxypropylcellulose) (HPC)) 108 % of control; under setting [6], 100 % of control; under setting [7], 108 % of control.
For `CC1=CC2(C)OC3C(=O)N(c4ccc(Cl)cc4)C(=O)C3C2N=C1` (centres undefined), the T/C was 104 % of control under setting [1], 99 % of control under setting [2] and 100 % of control under setting [3].
